The values that follow come from US20210155905A1, “Method for Obtaining Haploid Cells” (Centre National de la Recherche Scientifique (CNRS), priority 2017, published 2021).

Each structure is given as a SMILES string. Entries after “also recorded” stand apart in the source; their conditions may differ.

Data set [1] has as its system 3T3 cells. The data set is described as follows: FACS DNA content: appearance of the 1C (sub-G1) cell population 20 hours after release from G0. The format is cell-based, mouse. The note with it: ΔDboxGeminin-expressing cells, 9 μM RO-3306 upon G0/G1 release. Here is the method:
(§1) FIG. 31 represents FACS profiles showing the DNA content (propidium iodide staining) of 3T3 cells 20 hours after release from G0 in the presence (+ΔDboxGem) or not (−ΔDboxGem) of doxycycline alone (CTRL—first column) or combined with RO-3306 treatment (a CDK1 inhibitor that prevents mitotic entry second column) or after UV treatment (performed upon release to induce DNA damage; third column).
For PI, BrdU/PI and ^ser10PH3/PI experiments, cells were fixed in cold 70% Ethanol/PBS and then processed for indirect immunofluorescence, as described above. To detect cyclin B1/PI, MPM2/PI and FLAG/PI, cells were fixed in 3% PFA in PBS at RT for 15 min, permeabilized in 0.5% Triton X-100 for 5 min and processed for indirect immunofluorescence. For DNA staining, cells were treated with 50 μg·mL^−1 RNase A (Sigma, R6513) and stained with 25 μg·mL^−1 propidium iodide.
(§2) To express CDT1, 3T3 cells were transfected with 5 μg of plasmid pCDNA3-CDT1 or empty vector using Nucleofector TN II; Amaxa Biosystem; AAD-1001N. To induce DNA damage, synchronized cells were exposed to UV (0.002 joules) using the Bioblock Scientific BLX-254 upon release or incubated with 2 mM hydroxyurea for 20 hours. To block mitotic progression, 9 μM RO-3306 was added in the medium upon G0/G1 release.

Data set [2] relates to 3T3 cells. Kind of data set: Western blotting of cleaved caspase 3 (apoptosis). The format is cell-based, mouse. As to conditions: synchronized cells, hydroxyurea for 20 hours. The procedure:
as §1
FIG. 32 is a control western blot used as control of the experiment of FIG. 31. […] A: next G1, B: HU and C: U.V. C3*: cleaved caspase 3 and H3: histone H3.
as §2
To prepare total cell extracts, cells were harvested, washed twice with PBS, lysed in 2× Laemmli buffer, sonicated (3×30 seconds) and boiled for 5 min. To obtain chromatin-enriched fractions, a protocol adapted from Lutzmann et al. [Lutzmann et al. 2012 Molecular Cell, 47, 523-534] was used. […]

With `O=C1NC(=NCc2cccs2)S/C1=C\c1ccc2ncccc2c1` [RO-3306], in the data set on 3T3 cells [1], the “appearance of the 1C DNA content cell population” value is “prevented mitotic entry and the appearance of the 10 DNA cell population; also recorded: totally prevented their appearance”.
As for `NC(=O)NO` [hydroxyurea], the “apoptosis (cleaved caspase 3)” value with 3T3 cells [2] is recorded as “did not induce detectable apoptosis”.
